According to PMC3389279 (Bioorganic & medicinal chemistry letters, 2012):
“Also recorded” adds a separate entry of the source.

Legend:
NKCC1 [1] = target: T1, NKCC1 (Homo sapiens, UniProt P55011); assay: 86Rb uptake assay, NKCC1 function; assay type: cell-based; details: concentrations up to 100 µM
T1 sequence (P55011 1-1212): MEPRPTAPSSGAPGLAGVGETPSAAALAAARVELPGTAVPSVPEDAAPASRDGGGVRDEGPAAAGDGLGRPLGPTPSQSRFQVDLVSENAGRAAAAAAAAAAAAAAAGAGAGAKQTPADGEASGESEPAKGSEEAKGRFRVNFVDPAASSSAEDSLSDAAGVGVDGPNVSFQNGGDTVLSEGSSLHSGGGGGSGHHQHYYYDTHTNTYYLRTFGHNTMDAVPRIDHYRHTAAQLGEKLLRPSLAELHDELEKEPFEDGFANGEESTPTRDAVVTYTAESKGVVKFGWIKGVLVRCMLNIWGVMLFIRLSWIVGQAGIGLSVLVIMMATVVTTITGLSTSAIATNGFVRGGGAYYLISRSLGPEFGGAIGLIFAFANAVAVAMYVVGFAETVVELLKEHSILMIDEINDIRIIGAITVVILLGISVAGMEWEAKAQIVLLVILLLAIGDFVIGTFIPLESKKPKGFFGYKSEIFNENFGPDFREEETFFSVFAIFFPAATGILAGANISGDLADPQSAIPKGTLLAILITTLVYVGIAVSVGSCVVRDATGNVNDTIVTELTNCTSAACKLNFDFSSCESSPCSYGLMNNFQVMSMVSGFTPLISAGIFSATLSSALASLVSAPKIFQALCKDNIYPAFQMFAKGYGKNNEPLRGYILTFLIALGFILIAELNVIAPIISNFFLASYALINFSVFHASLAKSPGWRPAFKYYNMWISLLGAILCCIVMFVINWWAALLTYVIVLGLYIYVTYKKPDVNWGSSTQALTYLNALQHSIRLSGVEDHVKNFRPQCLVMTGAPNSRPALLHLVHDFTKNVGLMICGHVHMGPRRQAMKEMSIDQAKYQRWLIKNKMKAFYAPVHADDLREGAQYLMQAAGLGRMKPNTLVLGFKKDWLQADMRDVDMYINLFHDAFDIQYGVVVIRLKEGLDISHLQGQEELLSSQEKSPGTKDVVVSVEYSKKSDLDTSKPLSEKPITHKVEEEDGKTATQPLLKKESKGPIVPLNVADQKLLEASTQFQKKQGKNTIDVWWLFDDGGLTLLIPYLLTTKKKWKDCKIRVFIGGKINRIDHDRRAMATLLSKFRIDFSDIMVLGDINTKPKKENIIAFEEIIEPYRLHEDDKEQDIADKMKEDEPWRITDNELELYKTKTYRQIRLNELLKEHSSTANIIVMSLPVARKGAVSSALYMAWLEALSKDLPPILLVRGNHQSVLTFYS

[2] = test system: 68 GPCRs, ion channels and transporters; assay: Lead Profiling screen at Ricerca, radioligand binding assays
[3] = Intrinsic clearance in human liver microsomes; assay type: in vitro ADME
NKCC1 [4] = target: T1, NKCC1; details: KCC2 versus NKCC1; cited from earlier work
KCC2 [5] = target: T2, KCC2 (Homo sapiens, UniProt Q9H2X9); details: intrathecal injection; cited from earlier work
T2 sequence (Q9H2X9 1-1139): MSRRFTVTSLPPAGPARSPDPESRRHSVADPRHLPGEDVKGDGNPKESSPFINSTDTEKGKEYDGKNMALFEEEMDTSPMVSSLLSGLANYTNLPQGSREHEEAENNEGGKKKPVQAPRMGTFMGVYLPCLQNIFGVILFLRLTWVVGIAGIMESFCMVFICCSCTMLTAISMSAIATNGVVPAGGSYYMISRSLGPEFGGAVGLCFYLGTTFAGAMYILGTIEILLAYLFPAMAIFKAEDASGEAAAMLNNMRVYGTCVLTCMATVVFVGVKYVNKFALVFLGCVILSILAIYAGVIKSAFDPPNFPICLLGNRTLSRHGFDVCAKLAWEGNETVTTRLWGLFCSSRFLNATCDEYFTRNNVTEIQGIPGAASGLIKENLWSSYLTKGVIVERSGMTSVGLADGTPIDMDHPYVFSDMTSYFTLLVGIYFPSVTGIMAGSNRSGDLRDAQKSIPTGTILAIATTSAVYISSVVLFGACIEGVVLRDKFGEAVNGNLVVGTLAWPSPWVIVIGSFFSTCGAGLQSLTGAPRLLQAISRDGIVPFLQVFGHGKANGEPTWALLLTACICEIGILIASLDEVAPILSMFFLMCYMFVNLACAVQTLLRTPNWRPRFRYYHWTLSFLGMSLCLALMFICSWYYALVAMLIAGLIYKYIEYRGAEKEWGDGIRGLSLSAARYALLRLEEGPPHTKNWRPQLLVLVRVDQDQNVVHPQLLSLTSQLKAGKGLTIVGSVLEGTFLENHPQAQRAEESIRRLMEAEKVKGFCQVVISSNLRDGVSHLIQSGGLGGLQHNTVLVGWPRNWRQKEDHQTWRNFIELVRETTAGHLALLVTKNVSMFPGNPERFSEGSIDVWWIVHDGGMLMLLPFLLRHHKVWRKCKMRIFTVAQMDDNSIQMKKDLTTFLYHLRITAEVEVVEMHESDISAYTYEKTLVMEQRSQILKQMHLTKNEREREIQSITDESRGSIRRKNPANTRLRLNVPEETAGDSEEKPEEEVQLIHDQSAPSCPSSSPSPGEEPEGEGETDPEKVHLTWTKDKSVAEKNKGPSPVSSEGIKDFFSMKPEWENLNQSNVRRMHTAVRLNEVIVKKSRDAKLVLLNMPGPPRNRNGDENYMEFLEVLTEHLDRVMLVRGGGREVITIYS

[6] = Intrinsic clearance in rat liver microsomes; assay type: in vitro ADME
KCC2 [7] = target: T2, KCC2; assay: 86Rb uptake assay in KCC2-overexpressing HEK293 cells; assay type: cell-based; details: first generation libraries, 2-pyridyl-based analogs

SMILES | inhibition of NKCC1 function (in words) (NKCC1 [1]) | selectivity versus NKCC1 (NKCC1 [4]) | KCC2 antagonist activity (in words) (KCC2 [7]) | other results
Cc1csc(N(C(=O)CSc2ccc(-c3ccccc3)nn2)C2CC2)n1 [11k] | weak, partial inhibition; also recorded: weak partial inhibition |  |  | inhibition in ancillary pharmacology panel ([2]; 10 µM, 68 targets): ≤ 50%; activity in ancillary pharmacology panel (in words) ([2]; panel of 68 GPCRs, ion channels and transporters): no activity; Intrinsic clearance (in words) [3]: rapidly cleared in vitro
Cc1csc(NC(=O)CSc2ccc(-c3ccccc3)nn2)n1 [compound 1] |  | > 100 fold |  | 
Cc1csc(N(C)C(=O)CSc2ccc(-c3ccccc3)nn2)n1 [compound 2] | weak, partial inhibition; also recorded: weak partial inhibition | > 100 fold |  | block of KCC2 in spinal cord (in words) (KCC2 [5]): used successfully to block KCC2 in spinal cord; CLint scaled [6]: 294 mL/min/kg; CLint scaled [3]: 229 mL/min/kg
Cc1csc(NC(=O)CSc2ccc(-c3ccccc3)cn2)n1 [compound 9] |  |  | weak | 
Cc1csc(N(C)C(=O)CSc2ccc(-c3ccccc3)cn2)n1 [compound 10] |  |  | weak | 
